Assay results from patent publication US20240335508A1, “HYBRID GOLD NANOPARTICLE-LIPID NANOPARTICLES AND METHODS OF USE AND PRODUCTION THEREOF” (THE BOARD OF REGENTS OF THE UNIVERSITY OF OKLAHOMA, priority 2023, published 2024).

Test system: TOV-112D cells
Assay: DOX AuNSV cytotoxicity, MTS assay
Format: cell-based
Conditions: 0.5 and 0.25 μg/mL DOX
Description: TOV-112D cells were cultured in RPMI 1640 media containing 10% FBS and 1% penicillin-streptomycin at 37° C. with 5% CO2. Cells were seeded on 96-well plates in 100 μL of media at 7,500 cells per well. The next day, cells were treated in triplicate with NSVs, AuNSVs, DOX, DOX NSVs, and DOX AuNSVs at concentrations of 0.5, 0.25, 0.1, and 0.05 μg/mL DOX equivalence. After 24, 48, and 72 hours of treatment, 10 μL of CellTiter 96® AQueous One Solution Cell Proliferation Assay (MTS) (Promega, Madison, WI) was added to each well and incubated for 3-4 hours. After incubation, the well absorbance was measured at 490 nm with a SPECTROstar plate reader with cell viability calculated from the ratio of absorbance between untreated controls and each treatment group.

In the case of COc1cccc2c1C(=O)c1c(O)c3c(c(O)c1C2=O)C[C@@](O)(C(=O)CO)C[C@@H]3O[C@H]1C[C@H](N)[C@H](O)[C@H](C)O1 [DOX, Doxorubicin], the Cell viability is reported as “decreased cell viability faster than either the DOX NSV or DOX AuNSV”.
